Consider 8 molecules from patent publication US10662451B2, “Microorganisms and methods for the coproduction 1,4-butanediol and gamma-butyrolactone” (priority 2009, dated 2020).

Test [1] concerns branched chain alpha-ketoacid decarboxylase (BCKA). The following applies: cited from earlier work.
The target of test [2] is T1, adh1 from Geobacillus thermoglucosidasius M10EXG (Geobacillus sp. M10EXG, UniProt Q6RS93).
T1 sequence (Q6RS93 1-340): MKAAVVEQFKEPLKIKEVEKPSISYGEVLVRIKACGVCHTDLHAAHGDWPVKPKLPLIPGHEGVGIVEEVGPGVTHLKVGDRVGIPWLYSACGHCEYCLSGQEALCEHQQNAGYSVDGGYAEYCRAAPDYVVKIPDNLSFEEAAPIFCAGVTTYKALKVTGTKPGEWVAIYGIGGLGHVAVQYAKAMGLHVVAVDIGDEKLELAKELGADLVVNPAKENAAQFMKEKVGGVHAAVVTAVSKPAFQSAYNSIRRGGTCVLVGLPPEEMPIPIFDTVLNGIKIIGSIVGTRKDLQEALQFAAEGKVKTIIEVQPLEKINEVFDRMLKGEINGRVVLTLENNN
The test can be described thus: ADH enzyme assay of E. coli expressed Adh1 enzyme (084). The class given is biochemical. The following applies: reduction by Adh1 enzyme (084) expressed in E. coli. The method, then:
Alcohol (ADH) and aldehyde (ALD) dehydrogenase was assayed in the reductive direction using a procedure adapted from several literature sources (Durre et al., FEMS Microbiol. Rev. 17:251-262 (1995); Palosaari and Rogers, J. Bacteriol. 170:2971-2976 (1988) and Welch et al., Arch. Biochem. Biophys. 273:309-318 (1989)). The oxidation of NADH is followed by reading absorbance at 340 nm every four seconds for a total of 240 seconds at room temperature. The reductive assays were performed in 100 mM MOPS (adjusted to pH 7.5 with KOH), 0.4 mM NADH, and from 1 to 50 μl of cell extract. The reaction is started by adding the following reagents: 100 μl of 100 mM acetaldehyde or butyraldehyde for ADH, or 100 μl of 1 mM acetyl-CoA or butyryl-CoA for ALD. The Spectrophotometer is quickly blanked and then the kinetic read is started. The resulting slope of the reduction in absorbance at 340 nm per minute, along with the molar extinction coefficient of NAD(P)H at 340 nM (6000) and the protein concentration of the extract, can be used to determine the specific activity.
Multiple alcohol dehydrogenases were screened for their ability to catalyze the reduction of 4-hydroxybutanal to 14-BDO.
The Adh1 enzyme (084) expressed very well from its native gene in E. coli (see FIG. 8A).

Test [3] deals with aminotransferase from Leishmania mexicana. The following applies: activity considered 100% on tyrosine; cited from earlier work.

Molecules are shown by their SMILES.

On to `O=C(O)CCC(=O)C(=O)O` [2-Oxoglutarate], for which the “decarboxylation activity relative to other branched-chain substrates” value in test [1] is 5%.
In the case of `O=CCCCO` [Gene 4HB-aldehyde, 4-hydroxybutyraldehyde], in test [2], the Km (usually the concentration of substrate that gives half-maximal velocity) was determined as 4000 µM.
On the same count and under the same terms, under `CCCC=O` [butyraldehyde] stands 1200 µM.
Consider `CC(C)C[C@H](N)C(=O)O` [leucine], for which the aminotransferase activity in test [3] is on record as 25%.
Turning to `CSCC[C@H](N)C(=O)O` [methionine], the aminotransferase activity in test [3] is given as 25%.
Take `N[C@@H](Cc1ccccc1)C(=O)O` [phenylalanine]: the aminotransferase activity in test [3] is given as 90%.
In the case of `N[C@@H](Cc1c[nH]c2ccccc12)C(=O)O` [tryptophan], the aminotransferase activity in test [3] is recorded as 85%.
Take `N[C@@H](Cc1ccc(O)cc1)C(=O)O` [tyrosine]: the aminotransferase activity in test [3] is recorded as 100%.
